Source: PubChem BioAssay (NCI)
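In this assay, cells in 96-well plates receive the compound at five concentrations for 48 hours. Endpoints are linearly interpolated between the surrounding concentrations. The concentration for full growth arrest is given as TGI.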

Experiments:
Test in all cases: DTP human tumour cell line panel, 48 h
HCT-116 colon = system: HCT-116 colon
OVCAR-3 ovarian = system: OVCAR-3 ovarian
DU-145 prostate = system: DU-145 prostate
NCI-H226 lung = system: NCI-H226 lung
SNB-75 CNS = system: SNB-75 CNS
HL-60(TB) leukemia = system: HL-60(TB) leukemia
UACC-257 melanoma = system: UACC-257 melanoma
SK-MEL-28 melanoma = system: SK-MEL-28 melanoma
NCI-H460 lung = system: NCI-H460 lung
IGROV1 ovarian = system: IGROV1 ovarian
786-0 renal = system: 786-0 renal
SW-620 colon = system: SW-620 colon
PC-3 prostate = system: PC-3 prostate
HOP-92 NSCLC = system: HOP-92 NSCLC
HS 578T breast = system: HS 578T breast
CCRF-CEM leukemia = system: CCRF-CEM leukemia
HOP-62 NSCLC = system: HOP-62 NSCLC
T-47D breast = system: T-47D breast
M14 melanoma = system: M14 melanoma
TK-10 renal = system: TK-10 renal
K-562 leukemia = system: K-562 leukemia
MDA-MB-231 breast = system: MDA-MB-231 breast
A498 renal = system: A498 renal
HCT-15 colon = system: HCT-15 colon
SR leukemia = system: SR leukemia
ACHN renal = system: ACHN renal
EKVX NSCLC = system: EKVX NSCLC
MDA-N = system: MDA-N
SF-295 CNS = system: SF-295 CNS
COLO 205 colon = system: COLO 205 colon
RXF 393 renal = system: RXF 393 renal
NCI/ADR-RES ovarian = system: NCI/ADR-RES ovarian
OVCAR-8 ovarian = system: OVCAR-8 ovarian
SK-OV-3 ovarian = system: SK-OV-3 ovarian
SF-268 CNS = system: SF-268 CNS
MCF7 breast = system: MCF7 breast
MOLT-4 leukemia = system: MOLT-4 leukemia
KM12 colon = system: KM12 colon
NCI-H522 lung = system: NCI-H522 lung
SK-MEL-5 melanoma = system: SK-MEL-5 melanoma
SNB-19 CNS = system: SNB-19 CNS
A549 NSCLC = system: A549 NSCLC
MDA-MB-435 = system: MDA-MB-435
LOX IMVI melanoma = system: LOX IMVI melanoma
SN12C renal = system: SN12C renal
U251 CNS = system: U251 CNS
MALME-3M melanoma = system: MALME-3M melanoma
UO-31 renal = system: UO-31 renal
HT29 colon = system: HT29 colon
NCI-H23 lung = system: NCI-H23 lung
OVCAR-5 ovarian = system: OVCAR-5 ovarian
OVCAR-4 ovarian = system: OVCAR-4 ovarian
SF-539 CNS = system: SF-539 CNS
CAKI-1 renal = system: CAKI-1 renal
RPMI-8226 leukemia = system: RPMI-8226 leukemia
HCC-2998 colon = system: HCC-2998 colon
BT-549 breast = system: BT-549 breast
SK-MEL-2 melanoma = system: SK-MEL-2 melanoma

## CC(NC1=CC(=O)c2ncccc2C1=O)C(O)c1ccccc1 (stereo not drawn)
HCT-116 colon
  TGI: 15.2 µM
OVCAR-3 ovarian
  TGI: 16.3 µM
DU-145 prostate
  TGI: 16.6 µM
NCI-H226 lung
  TGI: 20.8 µM
SNB-75 CNS
  TGI: 9.6 µM
HL-60(TB) leukemia
  TGI: 16.5 µM
UACC-257 melanoma
  TGI: 10.6 µM
SK-MEL-28 melanoma
  TGI: 10.9 µM
NCI-H460 lung
  TGI: 3.22 µM
IGROV1 ovarian
  TGI: 16.4 µM
786-0 renal
  TGI: 26.2 µM
SW-620 colon
  TGI: 19.8 µM
PC-3 prostate
  TGI: 70.5 µM
HOP-92 NSCLC
  TGI: 27.9 µM
HS 578T breast
  TGI: 25.1 µM
CCRF-CEM leukemia
  TGI: > 100 µM
HOP-62 NSCLC
  TGI: 25.9 µM
T-47D breast
  TGI: 56 µM
M14 melanoma
  TGI: 11 µM
TK-10 renal
  TGI: > 100 µM
K-562 leukemia
  TGI: 13.2 µM
MDA-MB-231 breast
  TGI: 6.94 µM
A498 renal
  TGI: 27.7 µM
HCT-15 colon
  TGI: 17.3 µM
SR leukemia
  TGI: > 100 µM
ACHN renal
  TGI: 43.7 µM
EKVX NSCLC
  TGI: 29.5 µM
MDA-N
  TGI: 3 µM
SF-295 CNS
  TGI: 14.9 µM
COLO 205 colon
  TGI: 29.7 µM
RXF 393 renal
  TGI: 22.2 µM
NCI/ADR-RES ovarian
  TGI: 43.1 µM
OVCAR-8 ovarian
  TGI: 36.2 µM
SK-OV-3 ovarian
  TGI: 71.7 µM
SF-268 CNS
  TGI: 53.4 µM
MCF7 breast
  TGI: 7.56 µM
MOLT-4 leukemia
  TGI: 41.8 µM
KM12 colon
  TGI: 24.8 µM
NCI-H522 lung
  TGI: 24.8 µM
SK-MEL-5 melanoma
  TGI: 2.6 µM
SNB-19 CNS
  TGI: 20 µM
A549 NSCLC
  TGI: 12.8 µM
MDA-MB-435
  TGI: 3.02 µM
LOX IMVI melanoma
  TGI: 13.3 µM
SN12C renal
  TGI: 24.9 µM
U251 CNS
  TGI: 14.3 µM
MALME-3M melanoma
  TGI: 4.97 µM
UO-31 renal
  TGI: 17.2 µM
HT29 colon
  TGI: 28.3 µM
NCI-H23 lung
  TGI: > 19.8 µM
OVCAR-5 ovarian
  TGI: 29.3 µM
OVCAR-4 ovarian
  TGI: 22.3 µM
SF-539 CNS
  TGI: 19.7 µM
CAKI-1 renal
  TGI: 16.2 µM
RPMI-8226 leukemia
  TGI: 53.9 µM
HCC-2998 colon
  TGI: 23.2 µM
BT-549 breast
  TGI: 7.25 µM
SK-MEL-2 melanoma
  TGI: 17.9 µM
